Data set [1] deals with T1, trypsin (Bos taurus, UniProt P00760).
T1 sequence (P00760 24-246): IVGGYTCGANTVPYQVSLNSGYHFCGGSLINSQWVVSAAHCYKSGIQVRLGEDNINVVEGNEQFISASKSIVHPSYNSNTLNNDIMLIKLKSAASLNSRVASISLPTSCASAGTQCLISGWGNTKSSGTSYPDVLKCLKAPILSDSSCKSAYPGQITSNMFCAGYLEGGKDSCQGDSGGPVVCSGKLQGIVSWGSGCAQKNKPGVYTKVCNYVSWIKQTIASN
Particulars: literature; cited from earlier work.

The next data set addresses factor Xa (Bos taurus, UniProt P00743). Description: inhibition of factor Xa, dissociation constant Ki. The data set is classed as biochemical. Particulars: Table 1. The procedure: (§1) The biological activity of the compounds of the present invention was determined in vitro as well as in vivo.
For data set [2], the target named is T2, thrombin (Bos taurus, UniProt P00735).
Data set [3] relates to coagulation in human plasma. Description: thrombin time (TT) in human plasma.
A further data set concerns the target tPA (Homo sapiens, UniProt P00750). Description: inhibition of tPA, dissociation constant Ki.
The target in another data set is plasmin (Homo sapiens, UniProt P00747). Nature of the data set: inhibition of plasmin, dissociation constant Ki. Particulars: read-out: Ki, Plasmin; Table 1.
Data set [4] deals with coagulation in human plasma. Nature of the data set: prothrombin time (PT, Quick value) in human plasma.
The target of the next data set is T3, factor XIIa (Homo sapiens, UniProt P00748).
T3 sequence (P00748 373-615 limits assumed): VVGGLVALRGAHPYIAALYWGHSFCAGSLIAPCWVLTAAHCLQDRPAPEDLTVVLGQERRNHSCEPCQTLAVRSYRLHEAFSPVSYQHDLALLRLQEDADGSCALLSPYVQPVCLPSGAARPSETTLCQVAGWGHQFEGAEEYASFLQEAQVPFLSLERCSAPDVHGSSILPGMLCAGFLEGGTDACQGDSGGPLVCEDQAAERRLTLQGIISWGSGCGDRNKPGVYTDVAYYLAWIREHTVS
Nature of the data set: inhibition of factor XIIa, dissociation constant Ki. Particulars: Table 1.

In a further data set the target is plasma kallikrein (Homo sapiens, UniProt P03952). Nature of the data set: inhibition of plasma kallikrein, dissociation constant Ki. Particulars: Table 1.
For the next data set, the target named is glandular kallikrein (Sus scrofa, UniProt P00752). Description: inhibition of glandular kallikrein, dissociation constant Ki.
Data set [5] relates to coagulation in human plasma. Nature of the data set: activated partial thromboplastin time (aPTT) in human plasma.
Data set [6] concerns the target T1, trypsin. Nature of the data set: inhibition of trypsin, dissociation constant Ki. The data set is classed as biochemical. More on the design: thrombin and the related enzymes trypsin, plasmin, factor Xa, factor XIIa. Particulars: Table 1; read-out: Ki, Trypsin. On the procedure: as §1
Data set [7] can be described thus: plasma concentration in rats after intravenous administration. The data set is classed as in vivo. As to conditions: rat.
Data set [8] in a line: plasma concentration in rats after oral administration. The data set is classed as in vivo. Particulars: rat, oral.
The nature of data set [9]: plasma concentration in rats after rectal administration. The data set is classed as in vivo. Particulars: plasma, rat, rectal 20 mg/kg.
Another data set is described as follows: in vivo. Particulars: plasma, rat, intraduodenal 100 mg/kg.
For data set [10], the system named is coagulation in rat plasma. Nature of the data set: thrombin time in rat plasma after rectal application. The data set is classed as in vivo. Particulars: rectal 5 mg/kg. The procedure: (§2) After rectal administration of the compounds to be tested, the anticoagulant effect was determined in the plasma of experimental animals.
Data set [11] concerns coagulation in rat plasma. Nature of the data set: aPTT in rat plasma after rectal application. The data set is classed as in vivo. As to conditions: rectal 5 mg/kg. On the procedure:
as §2

Data set [12] is described as follows: concentration in rat plasma in the anticoagulant study after rectal application. The data set is classed as in vivo. As to conditions: rectal 5 mg/kg.
In data set [13] the target is T2, thrombin. Nature of the data set: biochemical.
In data set [14] the target is thrombin (Homo sapiens, UniProt P00734). As to conditions: literature; cited from earlier work.
Where [15] appears, read: read-out: Ki, Thrombin, Table 1.
Setting [16] is: read-out: Thrombin inhibition Ki, Table 7.
Setting [17] is: read-out: Ki, Gland. kallikr., Table 1.

Read-outs that look alike come from different tables or passages of the source. Where only a bound is given, the exact number is not on record here.

factor Xa, sequence (P00743 234-492 limits assumed): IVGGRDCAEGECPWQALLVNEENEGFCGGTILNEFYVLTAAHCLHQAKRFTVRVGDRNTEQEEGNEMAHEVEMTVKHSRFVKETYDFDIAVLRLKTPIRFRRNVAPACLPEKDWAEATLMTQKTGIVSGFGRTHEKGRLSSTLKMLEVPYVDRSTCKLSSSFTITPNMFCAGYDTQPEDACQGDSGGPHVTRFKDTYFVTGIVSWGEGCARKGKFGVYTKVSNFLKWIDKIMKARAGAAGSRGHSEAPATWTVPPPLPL
factor Xa, sequence (P00743 41-180 partner limits assumed): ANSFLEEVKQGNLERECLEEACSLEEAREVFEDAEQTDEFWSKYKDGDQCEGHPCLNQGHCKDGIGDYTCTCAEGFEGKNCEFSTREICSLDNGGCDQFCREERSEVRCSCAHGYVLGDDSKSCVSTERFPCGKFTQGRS
tPA, sequence (P00750 36-562): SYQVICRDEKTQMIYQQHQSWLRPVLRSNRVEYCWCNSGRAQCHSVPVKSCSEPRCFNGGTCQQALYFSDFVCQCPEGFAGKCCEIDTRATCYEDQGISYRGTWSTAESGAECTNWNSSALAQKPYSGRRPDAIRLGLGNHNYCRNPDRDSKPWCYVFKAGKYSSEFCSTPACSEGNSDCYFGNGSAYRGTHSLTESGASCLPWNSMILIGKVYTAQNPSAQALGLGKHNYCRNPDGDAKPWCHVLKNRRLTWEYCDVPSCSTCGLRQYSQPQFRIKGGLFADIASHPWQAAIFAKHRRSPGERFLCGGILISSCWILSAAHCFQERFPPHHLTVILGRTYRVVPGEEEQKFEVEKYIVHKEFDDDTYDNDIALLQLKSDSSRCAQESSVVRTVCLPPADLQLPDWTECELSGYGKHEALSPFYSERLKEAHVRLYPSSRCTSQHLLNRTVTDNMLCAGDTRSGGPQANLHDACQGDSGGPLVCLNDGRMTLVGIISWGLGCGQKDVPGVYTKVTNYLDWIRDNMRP
glandular kallikrein, sequence (P00752 8-246): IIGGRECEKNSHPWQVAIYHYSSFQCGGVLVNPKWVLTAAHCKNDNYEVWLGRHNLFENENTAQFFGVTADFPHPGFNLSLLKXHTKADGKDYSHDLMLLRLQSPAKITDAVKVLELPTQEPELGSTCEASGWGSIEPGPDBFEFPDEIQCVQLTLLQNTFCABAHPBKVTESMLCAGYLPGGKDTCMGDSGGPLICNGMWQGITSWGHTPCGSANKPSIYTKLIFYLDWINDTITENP
plasma kallikrein, sequence (P03952 391-638 limits assumed, species assumed): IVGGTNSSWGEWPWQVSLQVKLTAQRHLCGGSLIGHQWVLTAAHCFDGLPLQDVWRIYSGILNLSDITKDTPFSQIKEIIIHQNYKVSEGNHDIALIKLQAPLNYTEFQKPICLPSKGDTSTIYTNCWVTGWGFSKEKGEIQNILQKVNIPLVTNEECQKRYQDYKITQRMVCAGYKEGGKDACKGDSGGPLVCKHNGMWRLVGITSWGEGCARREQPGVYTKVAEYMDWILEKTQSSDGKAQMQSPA
plasma kallikrein, sequence (P03952 20-390 partner limits assumed, species assumed): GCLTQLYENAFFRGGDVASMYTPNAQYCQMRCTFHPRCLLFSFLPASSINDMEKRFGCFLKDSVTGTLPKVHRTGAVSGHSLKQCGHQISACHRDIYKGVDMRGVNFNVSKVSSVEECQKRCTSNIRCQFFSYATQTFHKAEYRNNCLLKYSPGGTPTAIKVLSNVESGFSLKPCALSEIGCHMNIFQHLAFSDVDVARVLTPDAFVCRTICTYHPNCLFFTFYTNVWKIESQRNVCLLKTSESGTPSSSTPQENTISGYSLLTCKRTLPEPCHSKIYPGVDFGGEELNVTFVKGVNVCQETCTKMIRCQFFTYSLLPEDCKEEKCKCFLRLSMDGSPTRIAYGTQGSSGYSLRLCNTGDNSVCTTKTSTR
plasmin, sequence (P00747 581-810 limits assumed): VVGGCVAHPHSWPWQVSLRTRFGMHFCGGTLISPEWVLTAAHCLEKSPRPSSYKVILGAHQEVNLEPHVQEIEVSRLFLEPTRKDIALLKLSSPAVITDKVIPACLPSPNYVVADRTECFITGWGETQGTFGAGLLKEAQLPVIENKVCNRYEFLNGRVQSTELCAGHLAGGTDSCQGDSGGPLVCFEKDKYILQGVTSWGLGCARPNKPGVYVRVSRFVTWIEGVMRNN
plasmin, sequence (P00747 97-580 partner limits assumed): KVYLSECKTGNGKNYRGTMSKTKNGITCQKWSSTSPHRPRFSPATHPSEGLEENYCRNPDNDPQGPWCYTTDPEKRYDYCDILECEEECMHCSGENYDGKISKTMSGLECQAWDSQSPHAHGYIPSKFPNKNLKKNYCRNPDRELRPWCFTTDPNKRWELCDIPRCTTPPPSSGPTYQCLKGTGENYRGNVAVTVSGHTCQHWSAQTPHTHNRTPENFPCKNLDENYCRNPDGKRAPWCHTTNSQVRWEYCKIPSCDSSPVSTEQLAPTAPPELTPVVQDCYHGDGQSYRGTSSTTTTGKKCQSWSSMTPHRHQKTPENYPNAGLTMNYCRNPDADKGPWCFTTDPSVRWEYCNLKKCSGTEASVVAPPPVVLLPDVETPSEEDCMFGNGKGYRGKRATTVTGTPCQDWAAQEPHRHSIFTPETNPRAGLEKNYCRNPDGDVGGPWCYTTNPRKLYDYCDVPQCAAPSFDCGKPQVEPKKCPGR

Consider `CC1CNc2c(cccc2S(=O)(=O)N[C@@H](CCCN=C(N)N)C(=O)N2CC[C@@H](C)C[C@@H]2C(=O)O)C1` (stereo partly drawn) [(2R,4R)-4-methyl-1-[Nα-(3-methyl-1,2,3,5-tetrahydro-8-quinolinesulfonyl)-L-arginine]-2-pipecoline-carboxylic acid], for which, at trypsin [1], the “trypsin-inhibiting activity in words” value is “practically no trypsin-inhibiting activity”.

A word on the Ki: it is the dissociation constant of the complex between target and ligand, obtained from inhibition or displacement. As for `CC1(C)C2CCC1(CS(=O)(=O)N[C@@H](Cc1cccc(C(=N)N)c1)C(=O)N1CCN(S(C)(=O)=O)CC1)C(=O)C2` (single isomer, unassigned) [Compound 7], the Ki at factor Xa came out at 1.1 µM; on thrombin [2] (setting [15]) it was 0.012 µM; at thrombin [2] (setting [16]), 0.012 µM; on tPA (read-out: Ki, tPA, Table 1), 20 µM; on plasmin, 14 µM; on factor XIIa (read-out: Ki, Factor XIIa), 61 µM. In addition, the inhibition constant (Ki) at plasma kallikrein (read-out: Ki, Plasma kallikr.) was 25 µM; at glandular kallikrein (setting [17]), over 1000 µM; at trypsin [6], 0.22 µM. In data set [3], the “Concentr. to double the Thrombin time” value is 0.075 µmol/L. In addition, the “concentration to double the TT” value in [3] is “less than 10^-7 mol/1”. Besides, the “Concentr. to double the Prothrombin time” value in data set [4] came out at 1.0 µmol/L. In addition, in data set [4], the “concentration to double the PT” value is listed as at most 1 μmol/1. Moreover, the “Concentr. to double the aPTT” value in data set [5] came out at 0.55 µmol/L. In addition, the “concentration to double the aPTT” value in [5] is listed as at most 1 μmol/1.

Consider `CN(C)C(=O)N1CCN(C(=O)[C@H](Cc2cccc(C(=N)N)c2)NS(=O)(=O)c2ccc3ccccc3c2)CC1` [Compound 6], for which the Ki on factor Xa is 15 µM; on thrombin [13], 0.004 µM; on tPA, over 1000 µM; at factor XIIa (Ki, Factor XIIa), 51 µM; at plasma kallikrein (Ki, Plasma kallikr.) it was 7.3 µM; on glandular kallikrein, over 1000 µM. For the same compound, the inhibition constant (Ki) on trypsin [6] turned out to be 0.097 µM. In data set [7] (plasma, iv, i.v. 1 mg/kg, 5 min), the concentration at 5 min is 823 ng/mL. In data set [7] (plasma, iv, i.v. 1 mg/kg, 15 min), this compound yielded a concentration at 0.25 h of 289 ng/mL. For the same compound, the concentration at 0.5 h in data set [7] (plasma, iv, i.v. 1 mg/kg, 30 min) came out at 194 ng/mL; in data set [9] (30 min), 1180 ng/mL; in “in vivo” (30 min), 20500 ng/mL; in [12] (plasma, 30 min) it was 648 ng/mL. The concentration at 1 h in [7] (plasma, iv, i.v. 1 mg/kg, 60 min) was found to be 141 ng/mL; in data set [9] (60 min) it was 449 ng/mL; in “in vivo” (60 min), 6500 ng/mL; in [12] (plasma, 60 min), 362 ng/mL. Further, the concentration at 2 h came out at 86 ng/mL in [7] (plasma, iv, i.v. 1 mg/kg, 120 min); 850 ng/mL in data set [9] (120 min); 3280 ng/mL in the data set “in vivo” (120 min); 157 ng/mL in data set [12] (plasma, 120 min). In addition, the concentration at 3 h was 70 ng/mL in data set [7] (plasma, iv, i.v. 1 mg/kg, 180 min); 272 ng/mL in data set [9] (180 min); 2060 ng/mL in the data set “in vivo” (180 min); 83 ng/mL in [12] (plasma, 180 min). For the same compound, in data set [7] (i.v.), the elimination in words entry is on record as “eliminated at comparable rate”. In data set [8], the resorption in words result is “only slightly resorbed”. Besides, the values for the concentration at 4 h (in [9] (240 min); in “in vivo” (240 min)) were 46 ng/mL and 1500 ng/mL, respectively. This compound also yielded a concentration at 5 h in the data set “in vivo” (300 min) of 1200 ng/mL. For the same compound, the concentration at 6 h in “in vivo” (360 min) was determined as 1440 ng/mL. Moreover, the “Clotting time, Thrombin time” value in data set [10] (0 min) was 55.3 s; in data set [10] (30 min) it was over 300 s; in data set [10] (60 min) it was over 300 s; in data set [10] (120 min), over 300 s; in [10] (180 min) it was 213 s. For the same compound, the “Clotting time, aPTT” value in [11] (0 min) turned out to be 22.3 s; in data set [11] (30 min), 34.5 s; in data set [11] (60 min) it was 31.5 s; in data set [11] (120 min) it was 28.4 s; in data set [11] (180 min) it was 26 s. For the same compound, the Concentration in plasma in [12] (0 min) worked out at 0 ng/mL. For the same compound, the “Concentr. to double the Thrombin time” value in data set [3] came out at 0.042 µmol/L. In [3], the “concentration to double the TT” value is recorded as “less than 10^-7 mol/1”. Moreover, the “Concentr. to double the Prothrombin time” value in data set [4] amounted to 0.65 µmol/L. The “concentration to double the PT” value in [4] is on record as at most 1 μmol/1. In addition, the “Concentr. to double the aPTT” value in data set [5] was 0.3 µmol/L. For the same compound, the “concentration to double the aPTT” value in data set [5] is on record as at most 1 μmol/1.

As to `CC1(C)C2CCC1(CS(=O)(=O)N[C@@H](Cc1cccc(C(=N)N)c1)C(=O)N1CCN(S(C)(=O)=O)CC1)C(=O)C2` (single isomer, unassigned) [Compound 8], the Ki was 6.7 µM on factor Xa; 0.031 µM on thrombin [2] (setting [15]); 0.031 µM at thrombin [2] (setting [16]); 82 µM at tPA (read-out: Ki, tPA, Table 1); 29 µM on plasmin; 70 µM on factor XIIa (read-out: Ki, Factor XIIa). In addition, the Ki at plasma kallikrein (read-out: Ki, Plasma kallikr.) was 130 µM; on glandular kallikrein (setting [17]) it was over 1000 µM; at trypsin [6] it was 0.44 µM. Besides, the “Concentr. to double the Thrombin time” value in data set [3] was 0.13 µmol/L. In addition, in data set [4], the “Concentr. to double the Prothrombin time” value is 2.0 µmol/L. In data set [5], the “Concentr. to double the aPTT” value worked out at 1.2 µmol/L.

With `CC(C)(C)OC(=O)NC(Cc1ccccc1)C(=O)N1CCCC1C(=O)NC(CCCNC(=N)N)B1OC2CC3CC(C3(C)C)C2(C)O1` [Boc-D-Phe-Pro-Boro-Arg-C10 H16], at thrombin [14], the “thrombin inhibition in words” value is “inhibited in a time-dependent reaction”. Also, the “trypsin-inhibiting activity in words” value at trypsin [1] is given as “inhibited in a time-dependent reaction”.

Source of the values: patent publication US5607937A, “Piperazides of substituted phenylalanine derivatives as thrombin inhibitors” (priority 1993, dated 1997).
